From PMC6222672, “Pharmacokinetic and Metabolism Studies of 12-Riboside-Pseudoginsengenin DQ by UPLC-MS/MS and UPLC-QTOF-MS^E” (Molecules : A Journal of Synthetic Chemistry and Natural …, 2018)
Read-outs that look alike come from different tables or passages of the source.

Assay: Pharmacokinetic study of RPDQ in rats after intragastric and intravenous administration (UPLC-MS/MS of plasma)
Assay type: in vivo, Wistar rats
Details: for AUC(0-t): read-out: AUC(0–60); for bioavailability: read-out: F (absolute bioavailability)
Procedure: The experiments on animals were approved by the Review Committee of Animal Care and Use of Jilin University. The study was conducted according to the ethical principles for animal use and care. Wistar rats (200 ± 20 g) were provided by Changchun Yisi Laboratory Animal Co. Ltd. (Changchun, China). All rats were housed in an environmentally controlled room (12 h light/dark cycle; temperature: 22 ± 2 °C; relative humidity: 55 ± 5%), and except during fast before experiments, the rats were fed with standard laboratory food and water ad libitum.
In the pharmacokinetic study, the rats were divided into different groups (n = 6, three males and three females): (1) RPDQ (6 mg/kg, i.g.), (2) RPDQ (12 mg/kg, i.g.), (3) RPDQ (24 mg/kg, i.g.), and (4) RPDQ (0.3 mg/kg, i.v.).
From the fossa orbitalis vein, the whole blood (150 μL) was collected at 0.5, 0.75, 1, 2, 3, 4, 6, 9, 10, 12, 18, 24, 48, and 60 h after oral administration, and 0.25, 0.5, 0.75, 1, 1.5, 2, 2.5, 3, 6, 12, and 24 h after intravenous administration. All the blood samples were anticoagulated with sodium heparin. After collection, the whole blood was centrifuged at 4000 rpm and 4 °C for 20 min to obtain plasma.
Plasma samples (being stored at −20 °C before analysis) were thawed and vortexed at room temperature. The mixture of each plasma sample (50 μL) and 20R-panaxadiol solution (100 ng/mL, 500 μL) was vortexed (2 min) and centrifuged (13,000 rpm, 4 °C, 10 min). The clear supernatant was obtained and transferred into vials, and 2 μL of it were then kept in autosampler at 4 °C and injected for analysis.
The analysis of pharmacokinetic was conducted on a Waters ACQUITY UPLC System coupled with a XEVO TQ-S mass spectrometer equipped with an electrospray ionization source (Waters, Milford, MA, USA). Separation was performed on a Waters BEH C18 UPLC column (2.1 × 50 mm, 1.7 μm) at 40 °C. The mobile phase, 0.1% formic aqueous solution (A) and 0.1% formic acid in acetonitrile (B) in proportions, was adjusted with a gradient elution programme (0 min, 40% B; 0~2 min, 40~100% B; 2~2.5 min, 100% B; 2.5~2.6 min, 100~40% B; 2.6~3.5 min, […]). The flow rate was kept constant at 0.3 mL/min. Chromatography of the RPDQ and IS was performed within 3.5 min. The injection volume was 2 μL. The multiple reaction monitoring (MRM) mode was performed in ESI^+. The main parameters were as follows: capillary voltage: 3000 V; source temperature: 150 °C; desolvation temperature: 300 °C; desolvation gas flow: 800 L/h; cone gas flow: 150 L/h; nebulizer gas flow: 7 bar; collision gas flow: 0.15 mL/min; cone voltage: 35 V and 28 V for RPDQ and IS, respectively; collision energy: 10 eV and 6 eV for RPDQ and IS, respectively. Masslynx V4.1 workstation (Waters, Milford, MA, USA) was used for data acquisition and processing.
Samples containing RPDQ above the upper limit of quantification were diluted and re-analyzed. The pharmacokinetics analysis in non-compartmental mode was conducted by Drug and Statistics (DAS) 3.0 pharmacokinetic software programme (Mathematical Pharmacology Professional Committee of China, Shanghai, China). The concentration versus the time curve was plotted. The time to reach the peak concentration (Tmax) and the maximum plasma concentration (Cmax) were obtained after oral administration. The results are shown as the mean ± standard deviation. The absolute bioavailability (F%) was calculated using the equation (AUCp.o. × Dosei.v.)/(AUCi.v. × Dosep.o.) × 100%.

[1] = both sexes, Wistar, rat, plasma, iv, rats, 0.3 mg/kg i.v.
[2] = both sexes, Wistar, rat, plasma, po, rats, 6 mg/kg intragastric
[3] = both sexes, Wistar, rat, plasma, po, rats, 12 mg/kg intragastric
[4] = both sexes, Wistar, rat, plasma, po, rats, 24 mg/kg intragastric

SMILES: CC(C)(O)[C@@H]1CC[C@@](C)([C@H]2CC[C@]3(C)[C@@H]2[C@H](O[C@@H]2O[C@H](CO)[C@@H](O)[C@H]2O)C[C@@H]2[C@@]4(C)CC[C@H](O)C(C)(C)[C@@H]4CC[C@]23C)O1 [RPDQ, 20S, 24S-12-O-β-D-ribofuranosyl-dammar-20, 24-epoxy-3β, 12β, 25-triol]
- AUC(0-inf) [1]: 8330 ± 270 ng·h/mL
- Tmax [1]: 0.25 h
- half-life [1]: 176 ± 30.6 min
- AUC(0-t) [1]: 8300 ± 258 ng·h/mL
- clearance (both sexes, Wistar, rat, plasma, iv, rats, 0.3 mg/kg i.v., read-out: CLz (converted)): 0.667 mL/min/kg
- Vd (both sexes, Wistar, rat, plasma, iv, rats, 0.3 mg/kg i.v., read-out: Vz): 11.52 ± 0.02 L/kg
- AUC(0-inf) [2]: 9570 ± 546 ng·h/mL
- Tmax [2]: 7 ± 1.55 h
- half-life [2]: 755 ± 76.8 min
- bioavailability (both sexes, Wistar, rat, plasma, po, rats, 6 mg/kg intragastric vs 0.3 mg/kg i.v.): 5.55%
- AUC(0-t) [2]: 9210 ± 608 ng·h/mL
- AUC(0-inf) [3]: 17700 ng·h/mL
- Tmax [3]: 7.5 ± 1.63 h
- half-life [3]: 770 ± 33.6 min
- bioavailability (both sexes, Wistar, rat, plasma, po, rats, 12 mg/kg intragastric vs 0.3 mg/kg i.v.): 5.15%
- AUC(0-t) [3]: 17100 ng·h/mL
- AUC(0-inf) [4]: 42600 ng·h/mL
- Tmax [4]: 7 ± 1.55 h
- half-life [4]: 824 ± 66.6 min
- bioavailability (both sexes, Wistar, rat, plasma, po, rats, 24 mg/kg intragastric vs 0.3 mg/kg i.v.): 6.08%
- AUC(0-t) [4]: 40400 ng·h/mL
- concentration at 6 h (both sexes, Wistar, rat plasma sample collected at 6 h after an oral dose of 12 mg/kg): 1000 ng/mL
- CLz (rats, 6 mg/kg intragastric): 0.63 ± 0.036 L/h/kg
- Vz (rats, 6 mg/kg intragastric): 11.45 ± 1.55 L/kg
- CLz (rats, 12 mg/kg intragastric): 0.68 ± 0.022 L/h/kg
- Vz (rats, 12 mg/kg intragastric): 12.53 ± 0.59 L/kg
- CLz (rats, 24 mg/kg intragastric): 0.57 ± 0.044 L/h/kg
- Vz (rats, 24 mg/kg intragastric): 11.28 ± 1.69 L/kg
- time at which RPDQ could still be quantified in plasma (rats, after gastrointestinal administration): 60 h
